Test results: PubChem BioAssay AID1963834 (Molecular Pharmacology Branch, DTP, NCI, 2024)

Tested on: 873145-292-R-J1-PDC complex spheroid viability
Experiment: Anticancer human tumor 873145-292-R-J1-PDC patient-derived renal clear cell carcinoma cell line growth inhibition [POLQ]
Details: for IC50: curve of first compound; for viability, T/C: stronger effect = lower value
Procedure: Multicellular complex tumor spheroid response to Polymerase (POL) inhibitors (novobiocin, ART-558, RP6685) in combination with a variety of drugs and investigational agents in selected tumor cell lines
The POL inhibitors (novobiocin, ART-558, and RP6685) were evaluated both individually and in combination with standard of care and investigational anticancer small molecules within a complex spheroid model of solid tumors. . Complex spheroids include a stromal component modeled by human endothelial cells (HUVEC) and fibroblasts modeled by human mesenchymal stem cells (MSCs). The concentration ranges selected for each drug and investigational agent were based upon clinically achievable concentrations if the clinical Cmax of the agent was known.
Compounds. The drugs and investigational agents: novobiocin (NSC847541), ART-558 (NSC835418), RP-6685 (NSC848927), peposertib (NSC802822), ceralasertib (NSC780249), elimusertib (NSC800525), camonsertib (NSC841442), AZD-1390 (NSC803789), olaparib (NSC753686), talazoparib (NSC767125), rucaparib (NSC756644), sotorasib (NSC818433), MRTX-1133 (NSC836407), SN-38 (NSC673596), topotecan (NSC609699), epotoside (NSC141540), doxorubicin (NSC123127), gemcitabine (NSC613327), 5-fluorouracil (NSC19893), paclitaxel (NSC125973), vemurafenib (NSC761431), MSA-2 (NSC828583), SN-011 (NSC837082), adavosertib (NSC754352), prexasertib (NSC758257), carboplatin (NSC241240) and oxaliplatin (NSC266046), were obtained from the National Cancer Institute (NCI) Developmental Therapeutics Program Chemical Repository (21). The FDA-approved anticancer drug set is available from the Developmental Therapeutics Program at https://dtp.cancer.gov/organization/dscb/obtaining/. […] The stock solutions were prepared in dimethyl sulfoxide (DMSO, Sigma-Aldrich, St. Louis, MO, cat. D2650), except for the platinum compounds which were prepared in saline (Quality Biological, Gaithersburg, MD, cat. 114-055-101), at 800-fold the tested concentration and stored at -70 degrees C prior to their use. All drugs and investigational agents were tested over a range starting from a high concentration at or near the clinical Cmax and decreasing in half-log increments. If the clinical Cmax for an agent had not been determined, the highest concentration tested was 10 microM, except for SN-38, which was tested at a high concentration of 1 microM.
Cell Culture. All cells were maintained in an incubator at 37 degrees C and 5% CO2 with 95% humidity. The PDC lines were cultured according to standard operating procedures established by the NCI PDMR (https://pdmr.cancer.gov). Table 3 of the manuscript, lists the cell lines along with the number of the three cell types plated to form the mct-spheroids and media for tumor cell growth. After thawing, all PDC lines, except 997537-175-T-J1-PDC and 415267-285-R-J2-PDC, were cultured in Matrigel-coated flasks prepared with a working solution of 1X Ham's F-12 nutrient mix, without supplementation (Thermo Fisher Scientific, cat. 11765054), 100 U/mL penicillin-streptomycin (Thermo Fisher Scientific, cat. 15140122), and 2.5% Matrigel (Corning Inc., Corning, NY, cat. 354248) for the first three passages. The two PDC lines 997537-175-T-J1-PDC and 415267-285-R-J2-PDC were cultured on uncoated flasks. The 857933-349-R-J2-PDC line was cultured in 6C/Colon 1B media containing advanced DMEM/F-12 (Thermo Fisher Scientific, cat. 12634028), 10 mM HEPES (Thermo Fisher Scientific, cat. 15630080), 1X GlutaMAX supplement (Thermo Fisher Scientific, cat. 35050061), 0.1 mg/mL primocin (InvivoGen, San Diego, CA, cat. ant-pm-2), 10% defined fetal bovine serum, heat inactivated (HyClone Laboratories Inc., Logan, UT, cat. SH30070.03HI), 50% L-WRN conditioned media (ATCC, cat. CRL-3276), 1.25 mM N-Acetyl-L-cysteine (Sigma-Aldrich, cat. A9165), 10 mM nicotinamide (Sigma-Aldrich, cat. N0636), 1X B-27 supplement (Thermo Fisher Scientific, cat. 17504044), 1X N-2 supplement (Thermo Fisher Scientific, cat. […]
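Further: spheroids exposed to compounds for 7 days before viability readout.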
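Wherever viability, T/C is given: luminescence signal used as surrogate for viable cell content; 100% = DMSO vehicle control viability.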

`CC(=O)O[C@H]1C(=O)[C@@]2(C)[C@H]([C@H](OC(=O)c3ccccc3)[C@]3(O)C[C@H](OC(=O)[C@H](O)[C@@H](NC(=O)c4ccccc4)c4ccccc4)C(C)=C1C3(C)C)[C@]1(OC(C)=O)CO[C@@H]1C[C@@H]2O` + COC1C(OC(N)=O)C(O)C(Oc2ccc3c(O)c(NC(=O)c4ccc(O)c(CC=C(C)C)c4)c(=O)oc3c2C)OC1(C)C was tested, and the IC50 (second compound 0.0316 µM) was over 3000 nM, the IC50 (second compound 0.1 µM) was over 3000 nM and the IC50 (second compound 0.316 µM) was over 3000 nM. It also gave an IC50 (second compound 1 µM) of over 3000 nM, an IC50 (second compound 3.16 µM) of over 3000 nM and an IC50 (second compound 10 µM) of over 3000 nM. The viability, T/C (second compound 0.0316 µM, first compound 0.00949 µM) was 90.9%, the viability, T/C (second compound 0.0316 µM, first compound 0.03 µM) was 67.2% and the viability, T/C (second compound 0.0316 µM, first compound 0.0949 µM) was 67.1%. The viability, T/C (second compound 0.0316 µM, first compound 0.3 µM) was 61.8%, the viability, T/C (second compound 0.0316 µM, first compound 0.949 µM) was 60.2% and the viability, T/C (second compound 0.0316 µM, first compound 3 µM) was 66.4%. The viability, T/C (second compound 0.1 µM, first compound 0.00949 µM) was 77.6%, the viability, T/C (second compound 0.1 µM, first compound 0.03 µM) was 75.2% and the viability, T/C (second compound 0.1 µM, first compound 0.0949 µM) was 73.9%. The viability, T/C (second compound 0.1 µM, first compound 0.3 µM) was 58.5%, the viability, T/C (second compound 0.1 µM, first compound 0.949 µM) was 58.5% and the viability, T/C (second compound 0.1 µM, first compound 3 µM) was 57.3%. The viability, T/C (second compound 0.316 µM, first compound 0.00949 µM) was 79.1%, the viability, T/C (second compound 0.316 µM, first compound 0.03 µM) was 73.5% and the viability, T/C (second compound 0.316 µM, first compound 0.0949 µM) was 66.6%. For the same molecule, the viability, T/C (second compound 0.316 µM, first compound 0.3 µM) was 60.9%, the viability, T/C (second compound 0.316 µM, first compound 0.949 µM) was 55.7% and the viability, T/C (second compound 0.316 µM, first compound 3 µM) was 60.1%. The viability, T/C (second compound 1 µM, first compound 0.00949 µM) was 84%, the viability, T/C (second compound 1 µM, first compound 0.03 µM) was 77.7% and the viability, T/C (second compound 1 µM, first compound 0.0949 µM) was 74.8%. For the same molecule, the viability, T/C (second compound 1 µM, first compound 0.3 µM) was 59%, the viability, T/C (second compound 1 µM, first compound 0.949 µM) was 57.6% and the viability, T/C (second compound 1 µM, first compound 3 µM) was 57.8%. For the same molecule, the viability, T/C (second compound 3.16 µM, first compound 0.00949 µM) was 77.4%, the viability, T/C (second compound 3.16 µM, first compound 0.03 µM) was 72.5% and the viability, T/C (second compound 3.16 µM, first compound 0.0949 µM) was 70.1%. For the same molecule, the viability, T/C (second compound 3.16 µM, first compound 0.3 µM) was 57.9%, the viability, T/C (second compound 3.16 µM, first compound 0.949 µM) was 58.1% and the viability, T/C (second compound 3.16 µM, first compound 3 µM) was 58.3%. The viability, T/C (second compound 10 µM, first compound 0.00949 µM) was 78.4%, the viability, T/C (second compound 10 µM, first compound 0.03 µM) was 69.1% and the viability, T/C (second compound 10 µM, first compound 0.0949 µM) was 62.3%. For the same molecule, the viability, T/C (second compound 10 µM, first compound 0.3 µM) was 55.7%, the viability, T/C (second compound 10 µM, first compound 0.949 µM) was 64.1% and the viability, T/C (second compound 10 µM, first compound 3 µM) was 58.6%.

`COc1cccc2c1C(=O)c1c(O)c3c(c(O)c1C2=O)CC(O)(C(=O)CO)CC3OC1CC(N)C(O)C(C)O1` (centres undefined) + COC1C(OC(N)=O)C(O)C(Oc2ccc3c(O)c(NC(=O)c4ccc(O)c(CC=C(C)C)c4)c(=O)oc3c2C)OC1(C)C was tested, and the IC50 (second compound 0.0316 µM) was 1610 nM, the IC50 (second compound 0.1 µM) was 1600 nM and the IC50 (second compound 0.316 µM) was 1510 nM. For the same molecule, the IC50 (second compound 1 µM) was 1400 nM, the IC50 (second compound 3.16 µM) was 1450 nM and the IC50 (second compound 10 µM) was 1500 nM. For the same molecule, the viability, T/C (second compound 0.0316 µM, first compound 0.0316 µM) was 98.9%, the viability, T/C (second compound 0.0316 µM, first compound 0.1 µM) was 92.4% and the viability, T/C (second compound 0.0316 µM, first compound 0.316 µM) was 74.9%. It also gave a viability, T/C (second compound 0.0316 µM, first compound 1 µM) of 81.8%, a viability, T/C (second compound 0.0316 µM, first compound 3.16 µM) of 4.46% and a viability, T/C (second compound 0.0316 µM, first compound 10 µM) of 4.3%. The viability, T/C (second compound 0.1 µM, first compound 0.0316 µM) was 99.5%, the viability, T/C (second compound 0.1 µM, first compound 0.1 µM) was 91.7% and the viability, T/C (second compound 0.1 µM, first compound 0.316 µM) was 75.1%. The viability, T/C (second compound 0.1 µM, first compound 1 µM) was 80.8%, the viability, T/C (second compound 0.1 µM, first compound 3.16 µM) was 5.22% and the viability, T/C (second compound 0.1 µM, first compound 10 µM) was 4.58%. The viability, T/C (second compound 0.316 µM, first compound 0.0316 µM) was 98.1%, the viability, T/C (second compound 0.316 µM, first compound 0.1 µM) was 84.2% and the viability, T/C (second compound 0.316 µM, first compound 0.316 µM) was 69.3%. For the same molecule, the viability, T/C (second compound 0.316 µM, first compound 1 µM) was 74.1%, the viability, T/C (second compound 0.316 µM, first compound 3.16 µM) was 7.63% and the viability, T/C (second compound 0.316 µM, first compound 10 µM) was 3.12%. For the same molecule, the viability, T/C (second compound 1 µM, first compound 0.0316 µM) was 99.6%, the viability, T/C (second compound 1 µM, first compound 0.1 µM) was 78.8% and the viability, T/C (second compound 1 µM, first compound 0.316 µM) was 78.8%. It also gave a viability, T/C (second compound 1 µM, first compound 1 µM) of 68.5%, a viability, T/C (second compound 1 µM, first compound 3.16 µM) of 5.35% and a viability, T/C (second compound 1 µM, first compound 10 µM) of 3.76%. For the same molecule, the viability, T/C (second compound 3.16 µM, first compound 0.0316 µM) was 93.3%, the viability, T/C (second compound 3.16 µM, first compound 0.1 µM) was 79.8% and the viability, T/C (second compound 3.16 µM, first compound 0.316 µM) was 80.7%. For the same molecule, the viability, T/C (second compound 3.16 µM, first compound 1 µM) was 71.1%, the viability, T/C (second compound 3.16 µM, first compound 3.16 µM) was 5.62% and the viability, T/C (second compound 3.16 µM, first compound 10 µM) was 2.42%. The viability, T/C (second compound 10 µM, first compound 0.0316 µM) was 101%, the viability, T/C (second compound 10 µM, first compound 0.1 µM) was 90.1% and the viability, T/C (second compound 10 µM, first compound 0.316 µM) was 78.2%. For the same molecule, the viability, T/C (second compound 10 µM, first compound 1 µM) was 74.4%, the viability, T/C (second compound 10 µM, first compound 3.16 µM) was 5.66% and the viability, T/C (second compound 10 µM, first compound 10 µM) was 2.86%.
